Consider 2 compounds from patent US4162325A, “N-substituted lactams” (UCB, Societe Anonyme, priority 1976, dated 1979).

The nature of data set [1]: toxicity, LD50 in rat. The conditions noted are these: in vivo, intravenous. The source says: The tested compounds have a remarkably low toxicity. Table V gives the toxicities, after intravenous administration, of some of the compounds of the present invention: […]
Data set [2] has as its system rats. The experiment in a line: active avoidance test, memory retention (paw pressure withdrawal) in rats. The class given is in vivo, rat. Particulars: for minimal effective dose: Rattus norvegicus, sc, 24 h, read-out: Active dose (minimum dose which reduces the stimulus to below 11 graduations). The text has this:
(A) The action on mnemic processes is first shown by the ability of the compounds to improve a type of memory retention in rats. The principle of the active avoidance test (see M. GREINDL and S. PREAT, Arch. Int. Pharmacodyn. Therap. 223,(1976),(1),168-171) developed in our laboratories and used for this purpose may be described as follows: the reaction of withdrawal of a rat's paw when subjected to an increasing and measured pressure is observed. The pressure at which the withdrawal reaction takes place is called the reaction threshold. This threshold is expressed by the number of graduations of the scale of the apparatus used (Analgesy meter UGO BASILE - Milano) and thus corresponds to the minimum pressure which brings about withdrawal when applied to the animal's paw. It is read directly from the scale of the apparatus used.
Inversely, animals treated with a substance having a positive effect on the mnemic processes (for example, piracetam) show a significant degree of retention: the stimulus at which the rats react by a reflex of avoidance is statistically lower than that of the control animals. A minimum of 20 rats are used per test (10 treated rats and 10 control rats) and the active dose is defined as the minimum dose which reduces the stimulus to below 11 graduations.
Subcutaneous administration of compounds of general formula (I), namely compounds A, G, H, I, J, K, L, N, O, P, Q, R, V, W, give, under these conditions, the effects indicated in Table I below.

For data set [3], the system named is rat. Briefly: reduction of the spinal fixation time in rats. The conditions noted are these: intraperitoneal, spinal section after 35 minutes. Type of data set: in vivo. The text has this:
(B) The action on mnemic processes is also shown by the reduction of the spinal fixation time, a test which has been described in literature (see C. GIURGEA & F. MOURAVIEFF-LESUISSE, Arch. Int. Pharmacodyn. 191/2,(1971),279) as an elementary memory model and which provides pharmacological reactivity in good correlation with clinical physiopathology. In the rat, after unilateral section of the cerebellum, there is a postural asymmetry of the hind paws. This asymmetry may persist, even after spinal section, if the animal has passed a sufficient period of time in this position. This time, which is called the spinal fixation time, is 45 minutes under the experimental conditions applied here.
On the other hand, if spinal section is performed before the expiry of this period of time, for example 35 minutes after the onset of the asymmetry, the latter disappears.
No animal treated with placebos retains the asymmetry under these conditions.
Inversely, any product which allows the rats to retain the asymmetry (thus effecting spinal fixation) when the spinal section is performed after 35 minutes, is considered to be active.
Intraperitoneal administration of compound A gives rise to the effects described in Table II. By "number of animals" is to be understood the number of animals which responded positively to the test, in relation to the number of animals tested at the indicated dose: […]

Data set [4] deals with mice. Briefly: protection against aggressions of the hypoxic type (lethality induced by oxydipentonium chloride) in mice. Type of data set: in vivo. Particulars: 1 h, mouse, intraperitoneal, one hour before curarizer, read-out: Proportion of survivors, treated animals. As for the experimental part:
Protection against aggressions of the hypoxic type is shown by a reduction of the lethality induced by a curarizer, the duration of action of which is short, namely oxydipentonium chloride (Brevatonal). At the doses used, this curarizer brings about a respiratory depression which, in turn, brings about a hypoxi-hypercapnic syndrome. A compound capable of protecting the brain during this brief period of hypoxia ensures survival. The compounds are administered to groups of 10 mice one hour before the injection of the curarizer; in a parallel test, a control group of 10 mice are given physiological salt solution before the curarizer. This test has also been developed in our laboratories (see, for the principle of this test, S. LEVIS et al.; Arch. Int. Pharmacodyn. Therap, 93,(1953),1,46-54).
Intraperitoneal administration of compounds of general formula (I), namely, products A, B, F, G, H, I, J, K, L, gives the results shown in Table III: […]

Data set [5] relates to rat. The conditions noted are these: 30 mg/kg (0.2 mM/kg), Giurgea et al., loc.cit.; cited from earlier work.

Values joined by “and” are separate entries in the source; they are usually repeats but may differ in a detail not shown here. Identical values can stand only once. Like-named read-outs stand apart in the source and are kept apart here. A value given as a limit tells only on which side of the number the result lay.

For the compound `NC(=O)CNC(=O)CN1CCCC1=O` [A, 2-(2-Oxo-1-pyrrolidineacetamido)-acetamide], the LD50 (in general, the dose expected to kill half of the subjects tested) in data set [1] was > 5000 µmol/kg and > 1000 mg/kg. Moreover, the minimal effective dose in data set [2] is 0.4 mg/kg and 2 µmol/kg. Further, the “activity compared with piracetam in the active avoidance test” value in data set [2] (rat, subcutaneous) is on record as “superior to that of piracetam”. Also, the “Number of animals which responded positively / number tested” value is recorded as 3/7 in data set [3] (6.4 mg/kg (0.032 mM/kg)) and 4/5 in data set [3] (20.0 mg/kg (0.1 mM/kg)). Besides, the responders at 320 µM, 320 µmol/kg in data set [4] (0.32 mM/kg (A 64, I 95, J 68, Piracetam 45 mg/kg), control 1/10, Piracetam 0/10) turned out to be 70%.
With `NC(=O)CN1CCCC1=O` [Piracetam, 2-oxo-1-pyrrolidineacetamide, reference compound], the minimal effective dose in data set [2] is 3.5 mg/kg and 25 µmol/kg. The “Number of animals which responded positively / number tested” value in data set [5] is on record as 4/9. Further, the responders at 320 µM, 45 mg/kg in data set [4] (ip, 0.32 mM/kg (A 64, I 95, J 68, Piracetam 45 mg/kg), control 1/10, Piracetam 0/10) was 10%. Further, the responders at 1000 µM, 142 mg/kg in data set [4] (ip, 1.0 mM/kg (Piracetam 142 mg/kg), control 2/10) worked out at 40%. In addition, in data set [4] (ip, 3.2 mM/kg (Piracetam 454 mg/kg), control 1/10), the responders at 3200 µM, 454 mg/kg stood at 80%.
